Test [1] has as its target T1, phosphorylated VEGF-R2Δ50 (Homo sapiens, UniProt P35968, DEL940-989/E990V).
T1 construct: VEGF-R2Δ50 contains residues 806-939 and 990-1171; made in house; host or cells: baculovirus/insect cells
As to the kind of experiment: VEGF-R2 ELISA assay. The conditions noted are these: * determined with ELISA assay, read-out: FLVK-P Ki. It counts as biochemical. From the text: VEGF-R2 Construct for Assay: This construct determines the ability of a test compound to inhibit tyrosine kinase activity. A construct (VEGF-R2Δ50) of the cytosolic domain of human vascular endothelial growth factor receptor 2 (VEGF-R2) lacking the 50 central residues of the 68 residues of the kinase insert domain was expressed in a baculovirus/insect cell system. Of the 1356 residues of full-length VEGF-R2, VEGF-R2Δ50 contains residues 806-939 and 990-1171, and also one point mutation (E990V) within the kinase insert domain relative to wild-type VEGF-R2. Autophosphorylation of the purified construct was performed by incubation of the enzyme at a concentration of 4 μM in the presence of 3 mM ATP and 40 mM MgCl2 in 100 mM Hepes, pH 7.5, containing 5% glycerol and 5 mM DTT, at 4° C. for 2 h. […] See Parast et al., Biochemistry, 37, 16788-16801 (1998).
Formation of phosphogastrin was monitored using biotinylated gastrin peptide (1-17) as substrate. Biotinylated phosphogastrin was immobilized using streptavidin coated 96-well microtiter plates followed by detection using anti-phosphotyrosine-antibody conjugated to horseradish peroxidase. The activity of horseradish peroxidase was monitored using 2,2′-azino-di-[3-ethylbenzathiazoline sulfonate(6)]diammonium salt (ABTS). Typical assay solutions contained: 2 μM biotinylated gastrin peptide; 5 mM DTT; 20 μM ATP; 26 mM MgCl2; and 2 mM MnCl2 in 200 mM Hepes, pH 7.5. The assay was initiated with 0.8 nM of phosphorylated VEGF-R2Δ50. Horseradish peroxidase activity was assayed using ABTS, 10 mM. The horseradish peroxidase reaction was quenched by addition of acid (H2SO4), followed by absorbance reading at 405 nm. Ki values were determined by measuring enzyme activity in the presence of varying concentrations of test compounds. The data were analyzed using Enzyme Kinetic and Kaleidagraph software.

Test [2] addresses T2, phosphorylated VEGF-R2Δ50 (FLVK-P) (Homo sapiens, UniProt P35968, DEL940-989/E990V).
T2 construct: VEGF-R2Δ50 contains residues 806-939 and 990-1171; made in house; host or cells: baculovirus/insect cells
Kind of test: VEGF-R2 coupled spectrophotometric (FLVK-P) assay. Conditions: for Ki: spectrophotometric assay. It counts as biochemical. In a few lines:
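Baculovirus-expressed human VEGF-R2Δ50 (residues 806-939/990-1171, E990V) was autophosphorylated with 3 mM ATP, 40 mM MgCl2 for 2 h at 4° C. ADP formation was coupled via PK/LDH to NADH oxidation, read at 340 nm, with 5.1 mM poly(E4Y1), 1 mM ATP, 25 mM MgCl2, Hepes pH 7.5. Ki came from activity across compound concentrations.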

A further test has as its target T3, CHK1 (Homo sapiens, UniProt O14757).
T3 sequence (O14757 1-476): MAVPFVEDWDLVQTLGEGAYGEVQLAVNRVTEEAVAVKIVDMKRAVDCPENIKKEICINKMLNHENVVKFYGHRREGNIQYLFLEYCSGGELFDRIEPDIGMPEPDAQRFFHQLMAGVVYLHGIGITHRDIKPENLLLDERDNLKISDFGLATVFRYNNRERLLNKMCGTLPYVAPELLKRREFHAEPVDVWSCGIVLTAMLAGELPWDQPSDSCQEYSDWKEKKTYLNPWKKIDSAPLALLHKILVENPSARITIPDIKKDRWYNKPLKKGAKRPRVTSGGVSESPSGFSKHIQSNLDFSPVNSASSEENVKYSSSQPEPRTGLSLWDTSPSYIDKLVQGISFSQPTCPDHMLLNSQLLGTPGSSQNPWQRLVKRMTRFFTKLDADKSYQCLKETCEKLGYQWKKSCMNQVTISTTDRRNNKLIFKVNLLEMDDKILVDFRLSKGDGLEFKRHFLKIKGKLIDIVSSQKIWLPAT
Kind of test: CHK1 high-throughput screening. It counts as biochemical. The conditions noted are these: for inhibition at 20 µM: read-out: % inhibition @ 20 μM, Table 4, repeated entries per example; for % inhibition @ 20 μM: Table 4, repeated entries per example.

For another test, the target named is CDK2/Cyclin A complex (Homo sapiens, UniProt P24941). As to the kind of experiment: CDK2/Cyclin A assay. It counts as biochemical. Conditions: Table 2. In a few lines: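 Radiometric assay: 150 nM CDK2/cyclin A (insect-cell CDK2, truncated cyclin A) phosphorylates His-tagged Rb fragment (residues 386-928) with 25 μM ATP plus [32P]ATP, pH 7.4 HEPES, 2% DMSO, 30 °C for 20 min. Filter-captured product counted by phosphorimager; apparent Ki from competitive or tight-binding inhibition fits.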

In a further test the target is T4, CDK4/Cyclin D3 complex (Homo sapiens, UniProt P11802).
T4 construct: made in house; host or cells: insect cells co-infected with baculovirus vectors
T4 sequence (P11802 whole entry): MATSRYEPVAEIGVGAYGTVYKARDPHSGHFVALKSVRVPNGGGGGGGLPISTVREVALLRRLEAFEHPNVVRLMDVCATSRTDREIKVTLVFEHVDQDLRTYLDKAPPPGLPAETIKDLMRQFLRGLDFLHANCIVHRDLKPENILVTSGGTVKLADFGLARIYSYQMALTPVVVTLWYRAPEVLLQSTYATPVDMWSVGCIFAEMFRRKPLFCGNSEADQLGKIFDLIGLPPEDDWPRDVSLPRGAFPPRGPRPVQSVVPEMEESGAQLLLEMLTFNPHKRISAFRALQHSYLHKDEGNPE
T4 sequence (P30281 whole entry partner): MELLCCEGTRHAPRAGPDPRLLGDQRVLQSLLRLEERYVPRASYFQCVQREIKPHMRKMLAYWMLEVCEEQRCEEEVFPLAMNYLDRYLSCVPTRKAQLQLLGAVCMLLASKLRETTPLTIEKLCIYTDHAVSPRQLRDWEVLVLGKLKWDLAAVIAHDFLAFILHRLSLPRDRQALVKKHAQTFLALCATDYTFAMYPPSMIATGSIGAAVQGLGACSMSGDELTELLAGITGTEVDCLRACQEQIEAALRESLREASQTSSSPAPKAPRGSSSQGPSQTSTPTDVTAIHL
As to the kind of experiment: CDK4/Cyclin D assay. Format: biochemical. The conditions noted are these: Table 2. In a few lines: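 Insect-cell-expressed CDK4/cyclin D3 (50 nM) phosphorylating His-tagged Rb fragment (residues 386-928) with 25 μM [^32P]ATP in HEPES pH 7.4, MgCl2, 2% DMSO; 20 min at 30 °C, EDTA stop. Filter-captured 32P by phosphorimager; apparent Ki from competitive or tight-binding inhibition fits.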

The test system of test [3] is human umbilical vein endothelial cells (HUVEC). As to the kind of experiment: HUVEC proliferation assay. It counts as cell-based. The conditions noted are these: Homo sapiens, HUVEC, Table 1. In a few lines:
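Exponentially growing HUVEC were serum-starved 24 h (F12K + 1% FBS), pre-treated 1 h with compound (0.1% DMSO final), then stimulated with 6 ng/ml VEGF. Proliferation was read 72 h later by MTT reduction (A595). IC50 came from seven 0.5-log concentrations in triplicate; screens gave % inhibition relative to VEGF-only and starved wells.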

The test system of test [4] is lung cancer cells (line MV522). Kind of test: Cancer cell proliferation (MV522) assay. Format: cell-based. Conditions: MV522, Table 1.

Values joined by “and” are separate entries in the source; they are usually repeats but may differ in a detail not shown here. Identical values can stand only once. Like-named read-outs stand apart in the source and are kept apart here.

By Ki is commonly meant a measure of affinity in units of concentration, obtained from inhibition or displacement. Broadly, the inhibition is the change of the read-out against control, counted positive when it falls. By IC50 is commonly meant the concentration needed to halve the response being measured. Low readings indicate greater potency, high ones weaker potency.

T2 sequence (P35968 with tags, fused parts or gaps DEL940-989/E990V limits assumed): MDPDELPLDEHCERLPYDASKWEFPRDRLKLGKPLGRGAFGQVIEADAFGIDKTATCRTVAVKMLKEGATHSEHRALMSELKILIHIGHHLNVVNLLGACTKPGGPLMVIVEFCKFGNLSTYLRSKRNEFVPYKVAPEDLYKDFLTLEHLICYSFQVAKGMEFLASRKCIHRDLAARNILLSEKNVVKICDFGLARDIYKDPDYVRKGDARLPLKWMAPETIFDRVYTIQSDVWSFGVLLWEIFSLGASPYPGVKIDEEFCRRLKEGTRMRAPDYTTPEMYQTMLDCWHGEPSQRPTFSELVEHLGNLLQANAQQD
T1 sequence (P35968 with tags, fused parts or gaps DEL940-989/E990V limits assumed): as above

Take `COc1cc(Nc2nc(N)c(C3=N[C@@H](C)C(c4ccccc4)O3)s2)cc(OC)c1OC` (stereo in doubt) [I(16), 5-(4-Methyl-5-phenyl-4,5-dihydro-oxazol-2-yl)-N^2-(3,4,5-trimethoxy-phenyl)-thiazole-2,4-diamine]: the Ki in test [1] (Table 2) was 178000 nM.
Regarding `COC(=O)Nc1cccc(-c2csc(-c3sc(Nc4cc(OC)c(OC)c(OC)c4)nc3N)n2)c1` [D(6), {3-[4′-Amino-2′-(3,4,5-trimethoxy-phenylamino)-[2,5′]bithiazolyl-4-yl]-phenyl}-carbamic acid methyl ester], the Ki in test [1] (Table 1) is 25 nM.
Consider `COc1cc(Nc2nc(N)c(-c3nc(-c4cccc(NC(=O)Oc5cccc6ccccc56)c4)cs3)s2)cc(OC)c1OC` [D(22), {3-[4′-Amino-2′-(3,4,5-trimethoxy-phenylamino)-[2,5′]bithiazolyl-4-yl]-phenyl}-carbamic acid naphthalen-1-yl ester], for which the Ki in test [1] (Table 1) came out at 89 nM.
`Cc1cc(C)cc(Nc2nc(N)c(-c3nc(-c4cccc(NC(=O)c5ccccc5)c4)cs3)s2)c1` [A(42), N-{3-[4′-Amino-2′-(3,5-dimethylphenylamino)-[2,5′]bithiazolyl-4-yl]-phenyl}-benzamide]: the affinity in test [2] (Table 1) corresponds to a Ki of 7.3 nM. Further, the inhibition at 20 µM at CHK1 was -0.1%.
For `COc1cc(Nc2nc(N)c(-c3nc(-c4cccc(NC(=O)COc5ccccc5)c4)cs3)s2)cc(OC)c1OC` [D(15), N-{3-[4′-Amino-2′-(3,4,5-trimethoxy-phenylamino)-[2,5′]bithiazolyl-4-yl]-phenyl}-2-phenoxy-acetamide], the Ki in test [1] (Table 1) was 240 nM.
The same measure, in the same setting: in the case of `CCC(=O)Nc1cccc(-c2csc(-c3sc(Nc4cc(OC)c(OC)c(OC)c4)nc3N)n2)c1` [D(8), N-{3-[4′-Amino-2′-(3,4,5-trimethoxy-phenylamino)-[2,5′]bithiazolyl-4-yl]-phenyl}-propionamide] it was 29 nM.
`Nc1nc(NCCc2ccccc2)sc1-c1nc(-c2cccc(NC(=O)c3ccccc3)c2)cs1` [A(38), N-[3-(4′-Amino-2′-phenethylamino-[2,5′]bithiazolyl-4-yl)-phenyl]-benzamide]: in test [2] (Table 1, at 0.05, concentration unit not printed (head nM)), the “FLVK-P % inhibition @ 0.05” value is 7% @. Besides, at CHK1, the “% inhibition @ 20 μM” value worked out at 9.8% and the inhibition at 20 µM came out at 9.1%.
As to `CNc1nc(N)c(-c2nc(-c3cccc(O)c3)cs2)s1` [A(30), 3-(4′-Amino-2′-methylamino-[2,5′]bithiazolyl-4-yl)-phenol], the Ki in test [2] (Table 2) was 110 nM; at CDK2/Cyclin A complex, 4800 nM; on CDK4/Cyclin D3 complex, 22000 nM. Also, the inhibition at 20 µM at CHK1 was determined as 3.4%.
Regarding `COc1cc(Nc2nc(N)c(-c3nc(-c4cccc(NC(=O)OC(C)C)c4)cs3)s2)cc(OC)c1OC` [D(10), {3-[4′-Amino-2′-(3,4,5-trimethoxy-phenylamino)-[2,5′]bithiazolyl-4-yl]-phenyl}-carbamic acid isopropyl ester], the Ki in test [1] (Table 1) is 56 nM.
For the compound `Nc1nc(Nc2ccc(S(N)(=O)=O)cc2)sc1-c1nc(-c2ccc(Cl)c(O)c2)cs1` [A(69), 4-[4′-Amino-4-(4-chloro-3-hydroxy-phenyl)-[2,5′]bithiazolyl-2′-ylamino]-benzenesulfonamide], the Ki at CDK2/Cyclin A complex was 4000 nM. Moreover, on CDK4/Cyclin D3 complex, the Ki is 7200 nM. Also, on CHK1, the “% inhibition @ 20 μM” value was 2.7% and 3.8%; the inhibition at 20 µM came to 4.8%.
`COc1cc(Nc2nc(N)c(C3=N[C@H](c4ccccc4)CO3)s2)cc(OC)c1OC` [I(7), R-5-(4-Phenyl-4,5-dihydro-oxazol-2-yl)-N^2-(3,4,5-trimethoxyl-phenyl)-thiazole-2,4-diamine]: in test [1] (Table 2), the Ki was found to be 5200 nM.
As for `Nc1nc(Nc2ccc(S(N)(=O)=O)cc2)sc1-c1nc(-c2ccc(-c3ccccc3)cc2)cs1` [A(70), 4-(4′-Amino-4-biphenyl-4-yl-[2,5′]bithiazolyl-2′-ylamino)-benzenesulfonamide], on CDK4/Cyclin D3 complex (at 100 (printed 100 or 100 μM)), the inhibition at 100 µM was less than 0%. For the same compound, at CHK1, the inhibition at 20 µM amounted to 3.8%.
Regarding `COc1cc(Nc2nc(N)c(C3=NC(C(C)C)CO3)s2)cc(OC)c1OC` (racemic) [I(17), (R/S)-5-(4-Isopropyl-4,5-dihydro-oxazol-2-yl)-N^2-(3,4,5-trimethoxy-phenyl)-thiazole-2,4-diamine], the Ki in test [1] (Table 2) was found to be 35000 nM.
Regarding `COc1cc(Nc2nc(N)c(C3=NC(C)CO3)s2)cc(OC)c1OC` (racemic) [I(15), (R/S)-5-(4-Methyl-4,5-dihydro-oxazol-2-yl)-N^2-(3,4,5-trimethoxy-phenyl)-thiazole-2,4-diamine], in test [1] (Table 2), the Ki is 73000 nM.
On to `COc1cc(Nc2nc(N)c(-c3nc(-c4cccc(NC(=O)CC(C)C)c4)cs3)s2)cc(OC)c1OC` [D(9)], for which the Ki in test [1] (Table 1) came out at 47 nM.
On to `COc1cc(Nc2nc(N)c(-c3nc(-c4cccc(NC(=O)C(F)F)c4)cs3)s2)cc(OC)c1OC` [D(14), N-{3-[4′-Amino-2′-(3,4,5-trimethoxy-phenylamino)-[2,5′]bithiazolyl-4-yl]-phenyl}-2,2-difluoro-acetamide], for which the Ki in test [1] (Table 1) worked out at 120 nM.
In the case of `COc1cc(Nc2nc(N)c(-c3nc(-c4cccc(NC(=O)C(F)(F)F)c4)cs3)s2)cc(OC)c1OC` [D(13), N-{^3-[4′-Amino-2′-(3,4,5-trimethoxy-phenylamino)-[2,5′]bithiazolyl-4-yl]-phenyl}-2,2,2-trifluoro-acetamide], the Ki in test [1] (Table 1) was 120 nM.
The compound `Nc1nc(Nc2ccc([N+](=O)[O-])cc2)sc1-c1nc(-c2cccc(NC(=O)c3ccccc3)c2)cs1` [A(56), 4-(4′-Amino-4-(3-benzamidophenyl)-[2,5′]bithiazolyl-2′-ylamino)-nitrophenyl] gave a Ki in test [2] (Table 1) of 84 nM. Also, the inhibition at 20 µM at CHK1 was -2.9%.
`COc1cc(Nc2nc(N)c(-c3nc(-c4cccc(NC(=O)Cc5ccccc5)c4)cs3)s2)cc(OC)c1OC` [D(5), N-{3-[4′-Amino-2′-(3,4,5-trimethoxy-phenylamino)-[2,5′]bithiazolyl-4-yl]-phenyl}-2-phenyl-acetamide]: the Ki in test [1] (Table 1) was determined as 63 nM.
Compound `Nc1nc(Nc2cccc(C(=O)O)c2)sc1-c1nc(-c2cccc(NC(=O)c3ccccc3)c2)cs1` [A(50), 3-[4′-Amino-4-(3-benzoylamino-phenyl)-[2,5′]bithiazolyl-2′-ylamino]-benzoic acid] registered a Ki in test [2] (Table 1) of 8.9 nM. Further, the IC50 in test [3] was more than 700 nM; in test [4], more than 10000 nM. For the same compound, the inhibition at 20 µM on CHK1 worked out at 30.1%.
